Legend:
[1] = tested on: Renilla luciferase controlled by rtTA2^s-M24C5G; experiment: Dual Tet-system reporter assay, Renilla luciferase, HeLa HLRF33/1141 cotransfected with cTA2D-5 and rtTA2s-M24C5G; format: cell-based; settings: HeLa cells (HLRF33/1141), 24 h incubation, 1 μg/ml
Description: (§1) B: Regulatory properties. HeLa cells (HLRF33/1141) were cotransfected with two plasmids encoding the transregulators cTA2^D-5 and rtTA2^s-M24C5G. Reporter gene expression was scored after 24 h incubation with 1 μg/ml of either cmt3 or dox or both. Luciferase activities were determined from cell extracts and represent the means of triplicate samples with standard deviations given in arbitrary light units (ALU; defined as relative light units per mg of total cell protein corrected for transfection efficiency). Expression of Renilla luciferase controlled by rtTA2^s-M24C5G is increased about 1000-fold and only in the presence of dox (columns 3 and 4). Addition of cmt3 leads to a ˜100-fold decrease in firefly luciferase activity, controlled by cTA2^D-5 (columns 2 and 4), while expression of firefly luciferase is only slightly, less than 2-fold, reduced in the presence of dox. […] The regulatory system is thus functional and can be used for target gene expression in NCSCs.
(§2) Recently two transcription factors have been constructed—cTA2^D-5 and rtTA2^s-M24C5G—with exclusive specificities for DNA binding (wt TRE/4C5G TRE), effector recognition (cmt3/dox) and homodimer formation (class D/class B) (Dr. Christian Berens, Erlangen University). All these components were tested for the first time in eukaryotic cells to determine their regulatory properties (C. Berens, unpublished). […]

[2] = tested on: dorsal root ganglion neurons; experiment: Functionality of the Tet-system in vivo: DOX to pregnant Sox10-rtTA mice mated with TRE-Aml1/Runx1 males; settings: [Sox10-rtTA+TRE-Aml1/Runx1] pups; DOX in drinking water during pregnancy days 7-8 and 11.5-14
Description: FIG. 8. Abnormalities in offspring of pregnant Sox10-rtTA mice which had been mated with TRE-Aml1/Runx1 males and treated with DOX during pregnancy days 7-8 and 11.5-14. Pups with the genotype [Sox10-rtTA+TRE-Aml1/Runx1] are smaller than normal and display pigment defects (upper left), megacolon (lower left), and a reduced size of dorsal root ganglia (upper and lower right).
FIG. 9. The number of dorsal root ganglion neurons is reduced compared to control (1) by about 50% in [Sox10-rtTA+TRE-Aml1/Runx1] pups from Sox10-rtTA mice, which hade been mated with TRE-Aml1/Runx1 males, and treated with DOX during pregnancy days 7-8 and 11.5-14 (2).
The functionality of the Tet-system in vivo was first confirmed. Sox10-rtTA female mice were bred with TRE-Aml1A/Runx1 males and DOX was given in the drinking water to the pregnant females pregnancy days 7 to 8 and 11.5 to 14, which correspond to the period NCSC migration. […] The number of DRG neurons was reduced by about 50% (FIG. 9).

[3] = tested on: firefly luciferase activity, controlled by cTA2^D-5; experiment: Dual Tet-system reporter assay, firefly luciferase, HeLa HLRF33/1141 cotransfected with cTA2D-5 and rtTA2s-M24C5G; format: cell-based; settings: HeLa cells (HLRF33/1141), 24 h incubation, 1 μg/ml
Description: as §1, §2

For C[C@H]1c2cccc(O)c2C(=O)C2=C(O)[C@]3(O)C(=O)C(C(N)=O)=C(O)[C@@H](N(C)C)[C@@H]3[C@@H](O)[C@@H]21 [DOX, doxycycline], the “Increase in expression of Renilla luciferase controlled by rtTA2^s-M24C5G” value [1] was “about 1000 fold”, the “Reduction of the number of dorsal root ganglion neurons compared to control” value [2] was “about 50%” and the “Decrease in firefly luciferase activity controlled by cTA2^D-5” value [3] was “less than 2 fold”.

With NC(=O)C1=C(O)C[C@@H]2C[C@@H]3Cc4cccc(O)c4C(=O)C3=C(O)[C@]2(O)C1=O [cmt3] the “Decrease in firefly luciferase activity controlled by cTA2^D-5” value [3] was about 100 fold.
